According to the OPERA property sets (Mansouri et al. 2018):
Converted amounts (≈) assume the structure as drawn. Where a SMILES comes first, the peptide text is derived from it.

**Q.** Which logP does the source give for `Oc1cccc(-c2ccccc2O)c1` here?
**A.** The logP was 4.06.

**Q.** For `CCCNc1nc(C)nc(C(Cl)(Cl)Cl)n1`, which logP is on record?
**A.** The logP was 3.29.

**Q.** With `Cn1cnc([N+](=O)[O-])c1I` as the compound, how does the logP read?
**A.** The logP was 1.

**Q.** With `COCCn1cnc2c(=N)n(C)c(=O)[nH]c21` as the compound, how does the logP read?
**A.** The logP was -0.96.

**Q.** For `CCCCCCOc1ccc(N)cc1`, which logP is on record?
**A.** Its logP is 3.64.

**Q.** With `CC[C@H](C)[C@H](NC(=O)[C@@H](NC(=O)[C@@H](NC(C)=O)C(C)C)C(C)C)C(N)=O` (Ac-Val-Val-Ile-NH2) as the compound, how does the logP read?
**A.** Its logP is 0.49.

**Q.** Which logP does the source give for `COc1cccc(N=C=S)c1` here?
**A.** Its logP is 3.68.

**Q.** Which logP does the source give for `Cn1c(CC(=O)O)cnc1C(=O)c1ccc([N+](=O)[O-])cc1` here?
**A.** The logP was 0.86.

**Q.** For `O=P1(N(CCCl)CCCl)NCCCO1` (stereo unspecified), which solubility is on record?
**A.** Its solubility is 153 mM (≈ 40000 µg/mL).

**Q.** Which logP does the source give for `C=CCCCCCCCC` here?
**A.** The logP was 5.7.

**Q.** For `Cc1ccc(-c2ccc(C)cc2)cc1`, which logP is on record?
**A.** Its logP is 5.09.

**Q.** With `OC[C@@H]1C[C@H](F)[C@H](n2cnc3cncnc32)O1` as the compound, how does the logP read?
**A.** Its logP is -0.4.

**Q.** Which logP does the source give for `Cc1cc(C)c(N)cc1C` here?
**A.** The logP was 2.27.

**Q.** Which logP does the source give for `Clc1cc(Cl)c(-c2cc(Cl)c(Cl)cc2Cl)cc1Cl` here?
**A.** The logP was 6.34.

**Q.** With `CN(C)c1ccc2cc3ccc(N(C)C)cc3nc2c1` as the compound, how does the solubility read?
**A.** The solubility was 2.64 mM (≈ 700 µg/mL).

**Q.** Which logP does the source give for `Cc1c(O)c(=O)ccn1CCO` here?
**A.** Its logP is -1.1.

**Q.** For `CCN(CC)CCN=c1cc2n(-c3ccc(Cl)cc3)c3ccccc3nc-2cc1Nc1ccc(Cl)cc1`, which logP is on record?
**A.** The logP was 7.97.

**Q.** For `OC(CN1C2CCOCC21)Cn1ccnc1` (stereo unspecified), which logP is on record?
**A.** Its logP is 0.07.

**Q.** With `Cc1ccc(S(=O)(=O)O)cc1` as the compound, how does the solubility read?
**A.** The solubility was 3600 mM (≈ 620000 µg/mL).

**Q.** For `O=c1nc[nH]c2c1ncn2[C@@H]1O[C@H](CO)C[C@@H]1F`, which logP is on record?
**A.** Its logP is -1.21.

**Q.** For `COCC(C)OC(=O)C(N)Cc1ccc(O)c(O)c1` (stereo unspecified), which logP is on record?
**A.** Its logP is 0.08.

**Q.** With `CCN(C)N=O` as the compound, how does the logP read?
**A.** Its logP is 0.04.

**Q.** For `CC(C)N(C(=O)COc1nnc(C(F)(F)F)s1)c1ccc(F)cc1`, which logP is on record?
**A.** Its logP is 3.2.

**Q.** Which logP does the source give for `N#CCCCCCCCCC#N` here?
**A.** Its logP is 1.75.

**Q.** Which logP does the source give for `Cc1nc2c(N)ncnc2n1C1OC(CO)CC1F` (stereo unspecified) here?
**A.** Its logP is 0.1.

**Q.** Which logP does the source give for `CCCCCCNC(=O)CCC(NS(=O)(=O)c1ccc(C)cc1)C(=O)O` (stereo unspecified) here?
**A.** Its logP is 0.84.

**Q.** Which logP does the source give for `O=C(NCCN1CCC(n2c(=O)[nH]c3cc(Cl)ccc32)CC1)c1ccc(F)cc1` here?
**A.** The logP was 4.63.

**Q.** For `CCCOC(=O)CCC(=O)OCCC`, which logP is on record?
**A.** The logP was 2.16.

**Q.** Which logP does the source give for `Clc1ccc(Cl)nn1` here?
**A.** The logP was 0.7.

**Q.** Which logP does the source give for `NS(=O)(=O)c1cc2cc(CNCCF)sc2o1` here?
**A.** Its logP is 0.34.

**Q.** With `N#CCC#N` as the compound, how does the logP read?
**A.** Its logP is -0.6.

**Q.** With `CCC(=O)OC1(c2ccccc2)CCN(C)CC1CC` (stereo unspecified) as the compound, how does the logP read?
**A.** Its logP is 3.61.

**Q.** With `CNCCC=C1c2ccccc2CCc2ccccc21` as the compound, how does the logP read?
**A.** The logP was 4.51.

**Q.** With `c1ccc2c(c1)Cc1cc3ccccc3cc1-2` as the compound, how does the logP read?
**A.** The logP was 5.77.

**Q.** Which logP does the source give for `c1ccc2c(c1)ccc1nc3c(ccc4ccccc43)cc12` here?
**A.** The logP was 5.73.

**Q.** For `CSc1nc(C(Cl)(Cl)Cl)nc(C(Cl)(Cl)Cl)n1`, which logP is on record?
**A.** The logP was 4.42.

**Q.** Which logP does the source give for `O=C(O)C1CCN1CC(O)Cn1ccnc1` (stereo unspecified) here?
**A.** The logP was -2.02.

**Q.** For `CC1CCc2cc(F)cc3c(=O)c(C(=O)O)cn1c23` (stereo unspecified), which logP is on record?
**A.** The logP was 1.6.

**Q.** For `C[Si]1(C)O[Si](C)(C)O[Si](C)(C)O[Si](C)(C)O[Si](C)(C)O1`, which logP is on record?
**A.** The logP was 8.03.

**Q.** For `C=CC(=O)NCCN(C)C`, which logP is on record?
**A.** The logP was -0.25.

**Q.** For `O=[N+]([O-])c1ccc2c(c1)CCN2`, which logP is on record?
**A.** Its logP is 2.07.

**Q.** Which results are given for `CC(=O)c1cc2c(cc1C)C(C)(C)C(C)CC2(C)C` (stereo unspecified)?
**A.** logP: 5.7; solubility: 0.00484 mM (≈ 1.25 µg/mL)

**Q.** Which logP does the source give for `N=c1cc2n(-c3ccc(Cl)cc3)c3ccccc3nc-2cc1Nc1ccc(Cl)cc1` here?
**A.** Its logP is 6.47.

**Q.** Which logP does the source give for `Cc1ccc(S(=O)(=O)N(C)C(=O)c2ccccc2)cc1` here?
**A.** The logP was 2.95.

**Q.** With `CCCCC(=O)OCN1C(=O)NC(c2ccccc2)(c2ccccc2)C1=O` as the compound, how does the logP read?
**A.** Its logP is 3.9.

**Q.** For `Brc1ccc(O[Si]23OCCN(CCO2)CCO3)cc1`, which logP is on record?
**A.** The logP was 0.58.

**Q.** Which logP does the source give for `CNCCc1ccccn1` here?
**A.** Its logP is 0.68.

**Q.** With `NC(=O)c1ccccc1NCCCO` as the compound, how does the logP read?
**A.** Its logP is 0.7.

**Q.** With `ON=C1CCCCC1` as the compound, how does the logP read?
**A.** Its logP is 0.84.

**Q.** With `Clc1ccc(Nc2cc3nc4ccccc4n(-c4ccc(Cl)cc4)c-3cc2=NCC2CCNCC2)cc1` as the compound, how does the logP read?
**A.** The logP was 6.44.

**Q.** With `CC(C)CC(=O)OCc1ccccc1` as the compound, how does the logP read?
**A.** Its logP is 3.26.

**Q.** Which logP does the source give for `CC(NC(CCc1ccccc1)C(=O)O)C(=O)N1C(C(=O)O)CC2CCCC21` (stereo unspecified) here?
**A.** Its logP is 0.22.

**Q.** Which logP does the source give for `Cc1ccc(CN)cc1` here?
**A.** Its logP is 1.46.

**Q.** Which logP does the source give for `CC(C)c1ccccc1-c1ccccc1` here?
**A.** Its logP is 5.2.

**Q.** With `O=[N+]([O-])c1ccc2c(c1)NCC2` as the compound, how does the logP read?
**A.** Its logP is 1.92.

**Q.** Which logP does the source give for `CCOC(=O)CCC(=O)OCC` here?
**A.** The logP was 1.2.

**Q.** With `BrC=C(Br)Br` as the compound, how does the logP read?
**A.** The logP was 3.2.

**Q.** Which logP does the source give for `COC(=O)C1=C(C)NC(C)=C(C(=O)OCCN2CCN(C(c3ccccc3)c3ccccc3)CC2)C1c1cccc([N+](=O)[O-])c1` (stereo unspecified) here?
**A.** The logP was 5.2.

**Q.** Which logP does the source give for `Cc1ccc(C)c(C)n1` here?
**A.** The logP was 2.05.

**Q.** For `COc1ccc(Cl)c(Cl)c1Cl`, which logP is on record?
**A.** Its logP is 3.74.

**Q.** For `CC(=O)n1ncc2c(O)ncnc21`, which logP is on record?
**A.** Its logP is -0.35.

**Q.** For `CC(C)(C)c1ccc2oc(N(N)CCC#N)nc2c1`, which logP is on record?
**A.** The logP was 2.82.

**Q.** With `NCCc1nc(-c2ccccc2)cs1` as the compound, how does the logP read?
**A.** Its logP is 2.22.

**Q.** With `Clc1cc(Cl)c(Oc2ccccc2)cc1Cl` as the compound, how does the logP read?
**A.** Its logP is 5.44.

**Q.** Which logP does the source give for `CN(C)C(=S)N(C)C` here?
**A.** The logP was 0.49.

**Q.** Which logP does the source give for `CC(O)CNc1ncc(-c2ccncc2)cc1C#N` (stereo unspecified) here?
**A.** The logP was 0.79.

**Q.** Which solubility does the source give for `Cc1ccc(OP(=O)(Oc2ccc(C)cc2)Oc2ccc(C)cc2)cc1` here?
**A.** The solubility was 0.000814 mM (≈ 0.3 µg/mL).

**Q.** For `CC(C)(C)[N+]([O-])=Cc1ccc(F)cc1`, which logP is on record?
**A.** The logP was 1.42.

**Q.** Which logP does the source give for `CC(=O)Oc1ccc(NC(=O)C(Cl)Cl)cc1` here?
**A.** Its logP is 1.9.

**Q.** For `CCC1(C)CC(=O)NC1=O` (stereo unspecified), which logP is on record?
**A.** The logP was 0.38.

**Q.** Which logP does the source give for `COc1ncnc2c1ncn2C1OC(COC(=O)C(C)(C)C)C(O)C1OC(=O)C(C)(C)C` (stereo unspecified) here?
**A.** Its logP is 3.4.

**Q.** Which logP does the source give for `CCCCCCCCCCCC` here?
**A.** Its logP is 6.1.

**Q.** With `Clc1cc2c(Cl)ccc(Cl)c2cc1Cl` as the compound, how does the logP read?
**A.** The logP was 5.81.

**Q.** Which logP does the source give for `CCCCCCCCC(=O)OC` here?
**A.** The logP was 4.32.

**Q.** For `NC(=O)c1ccccc1NCCO`, which logP is on record?
**A.** Its logP is -0.05.

**Q.** Which logP does the source give for `COc1ccc(Cn2cncn2)cc1` here?
**A.** The logP was 1.1.

**Q.** With `Cn1cnc2c(N)ncnc21` as the compound, how does the logP read?
**A.** Its logP is -0.03.

**Q.** Which logP does the source give for `O=CC=Cc1ccc([N+](=O)[O-])o1` here?
**A.** Its logP is 0.96.

**Q.** For `CC1(C)[C@H](/C=C(\Cl)C(F)(F)F)[C@@H]1C(=O)O[C@H](C#N)c1cccc(Oc2ccccc2)c1`, which solubility is on record?
**A.** Its solubility is 1.11e-05 mM (≈ 0.005 µg/mL).

**Q.** With `NS(=O)(=O)c1cccc2ccccc12` as the compound, how does the logP read?
**A.** The logP was 1.55.
